Entries after “also recorded” stand apart in the source; their conditions may differ. Structures can show the parent of a compound that is named as a salt.
Assay: Wet granulation of anhydrous moxifloxacin hydrochloride, crystal form checked by X-ray powder diffractogram
Format: physicochemical
Text: Using of anhydrous moxifloxacin hydrochloride, of which X-ray powder diffractogram could be seen (FIG. 2), in pharmaceutical formulations provides eligible stability therefore preferred rather than moxifloxacin hydrochloride monohydrate. […] It is not desired and it should be prevented.
A wet granulation method with an organic solvent or mixtures of organic solvents is describe herein in which the organic solvent or mixtures of organic solvents are selected from isopropyl alcohol (IPA), acetone, ethanol, dichloromethane and mixtures thereof. […] It is not desired to be converted and thence If conversion is not desired, then granulation should not be performed with water or water mixtures. Anhydrous moxifloxacin hydrochloride should not be exposed to water in the preparation stage. The organic solvent is selected from isopropyl alcohol (IPA), acetone, ethanol, dichloromethane or mixtures thereof in the wet granulation method so as to obtain non-convertible formulations (respectively FIG. 4, FIG. 5, FIG. 6, FIG. 7).
POVIDONE K-30 (polyvinylpyrrolidone) is added to isopropyl alcohol and mixed until the POVIDONE K-30 (polyvinylpyrrolidone) is completely dissolved (Step 1). Moxifloxacin Hydrochloride and Microcrystalline Cellulose are transferred to a granulator and mixed (Step 2). The granulation solution from step 1 is added to the powder mixtures from step 2 and mixed. Wet granules are taken from the granulator to the oven and dried. The granules are sieved. MANNITOL SD 200 (mannitol) and croscarmellose sodium are transferred to the mixtures in the container and mixed. Magnesium stearate is sieved and added to the mixtures in the container and sieved. The blend is tabletted using appropriate punches according to the specifications.

## COc1c(N2C[C@@H]3CCCN[C@@H]3C2)c(F)cc2c(=O)c(C(=O)O)cn(C3CC3)c12 [anhydrous moxifloxacin hydrochloride]
Wet granulation with acetone (FIG. 5)
  conversion of anhydrous form to moxifloxacin hydrochloride monohydrate: no conversion to moxifloxacin hydrochloride monohydrate
Wet granulation with dichloromethane (FIG. 7)
  conversion of anhydrous form to moxifloxacin hydrochloride monohydrate: no conversion to moxifloxacin hydrochloride monohydrate
Wet granulation with ethanol (FIG. 6)
  conversion of anhydrous form to moxifloxacin hydrochloride monohydrate: no conversion to moxifloxacin hydrochloride monohydrate
Wet granulation with isopropyl alcohol (FIG. 4)
  conversion of anhydrous form to moxifloxacin hydrochloride monohydrate: no conversion
Wet granulation with water as wetting agent (FIG. 3), hydrochloride
  conversion of anhydrous form to moxifloxacin hydrochloride monohydrate: instantly converted to moxifloxacin hydrochloride monohydrate; also recorded: conversion from anhydrous moxifloxacin hydrochloride to moxifloxacin hydrochloride monohydrate

Reference: patent US8314122B2, “Using of organic solvents in wet granulation of moxifloxacin” (Abdi Ibrahim Ilac Sanayi Ve Ticaret Anonim Sirketi, priority 2008, dated 2012)
